system: carbonyl reductase IsADH1; assay: Substrate specificity of IsADH1: carbonyl reductase activity by NADPH consumption (absorbance at 340 nm); format: biochemical, Issatchankia scutulata var. scutulata JCM1828 strain; set-up: key: —: Activity cannot be detected; Trace: a slight level of activity is detected; conditions: purified carbonyl reductase, 2 mM substrate, 0.32 mM NADPH, 100 mM Tris-HCl (pH 7.5), 37° C.; activity to 1-acetoxy-3-chloro-2-propanone defined as 100
Procedure: The Issatchankia scutulata var. scutulata JCM1828 strain was cultured in 2 L of a medium (80 g of glucose, 20 g of yeast extract (manufactured by Difco), and 40 g/L peptone (manufactured by Kyokuto Pharmaceutical Industrial Co., Ltd.)), and a cell mass was then prepared by centrifugation. 150 g of the obtained wet cell mass was suspended in 10 mM potassium phosphate buffer (pH 7) and 0.1 mM DTT (hereinafter simply referred to as a “buffer”), and it was then crushed with DYNO-MILL KDL (manufactured by Shimaru Enterprises Corp.). Thereafter, the cell mass residue was eliminated by centrifugation, so as to obtain a cell-free extract. Thereafter, PEG6000 was added to the cell-free extract to a concentration of 90 g/L, and the obtained mixture was then left at rest at 4° C. for 1 hour. Thereafter, the precipitate was eliminated by centrifugation. The obtained supernatant was then subjected to anion exchange chromatography using DEAE Sepharose Fast Flow (manufactured by Amersham Biosciences), hydrophobic interaction chromatography using Butyl Sepharose 4 Fast Flow (manufactured by Amersham Biosciences), anion exchange chromatography using MonoQ (manufactured by Amersham Biosciences), and Gel filtration chromatography using Superdex 200 (manufactured by Amersham Biosciences), so that carbonyl reductase of interest could be purified to a single band in electrophoresis.
During purification, the activity of carbonyl reductase was measured by reacting the reaction solution containing an enzyme solution (100 mM Tris-HCl (pH 7.5), 0.32 mM NADPH, and 2 mM 1-acetoxy-3-chloro-2-propanone) at 37° C. and then calculating the amount of NADPH consumed based on a decrease in the absorbance at 340 nm. For the measurement of the absorbance, SPECTRAmax 190 (manufactured by Molecular Devices) was used. It is to be noted that the activity necessary for consuming 1 nmol of NADPH for 1 minute in the aforementioned reaction was defined as 1 U.
With regard to various carbonyl compounds, a reaction solution (100 mM Tris-HCl (pH 7.5), 0.32 mM NADPH, and a 2 mM substrate) containing the carbonyl reductase solution purified in (2) above was prepared, and it was reacted at 37° C. The amount of NADPH consumed in the reaction solution was monitored based on the absorbance at 340 nm, so as to measure carbonyl reductase activity to each compound. For the measurement of the absorbance, SPECTRAmax 190 (manufactured by Molecular Devices) was used. The relative activity of carbonyl reductase to each substrate compound obtained when carbonyl reductase activity to 1-acetoxy-3-chloro-2-propanone was defined as 100 is shown in Table 4.

SMILES | Relative activity
CC(=O)OCC(=O)CCl [1-acetoxy-3-chloro-2-propanone] | 100
O=C(c1ccccc1)C(F)(F)F [2,2,2-trifluoroacetophenone] | 53.8
CCC(=O)C(C)=O [2,3-pentadione] | Trace
O=C1CC2CCC1C2 (centres unmarked) [2-norbornanone] | —
CCC(=O)c1cccnc1 [3-propionylpyridine] | 11.2
O=C1CN2CCC1CC2 [3-quinuclidinone] | Trace
CC(=O)C(C)O (centres unmarked) [Acetoin] | —
CC(=O)c1ccccc1 [Acetophenone] | —
CC(=O)C(C)=O [Diacetyl] | —
CCOC(=O)C(=O)C(C)C [Ethyl 3-methyl-2-oxobutylate] | Trace
CCOC(=O)CC(C)=O [Ethyl 3-oxobutyrate] | 25.5
CCOC(=O)CC(=O)CCl [Ethyl 4-chloro-3-oxobutyrate] | 212
CCOC(=O)CC(=O)c1ccccc1 [Ethyl benzoylacetate] | Trace
CCOC(=O)CC(=O)c1cccnc1 [Ethyl nicotinoylacetate] | 20.7
CCOC(=O)C(C)=O [Ethyl pyruvate] | Trace
CC(=O)COc1ccccc1 [Phenoxyacetone] | —
O=C(O)C(=O)Cc1ccccc1 [Phenylpyruvic acid] | 12.2
CCC(=O)c1ccccc1 [Propiophenone] | Trace
O=Cc1ccc(Cl)cc1 [p-chlorobenzaldehyde] | 58.0
O=Cc1ccc(O)cc1 [p-hydroxybenzaldehyde] | —

Source: patent US20080233621A1, “Method For Producing Alcohol and Carboxylic Acid Having Optical Activity” (API Corporation, priority 2004, published 2008)
